Read-outs that look alike come from different tables or passages of the source.

We go through two molecules from US20240269139A1, “COMPOUNDS FOR TARGETED PROTEIN DEGRADATION OF KINASES” (DANA-FARBER CANCER INSTITUTE, INC., priority 2020, published 2024).

Format in all cases: cell-based
The target of test [1] is protein kinases (human kinome) (Homo sapiens, UniProt P41240). The following applies: experiment wp147, 4 uM.
Test [2] concerns the target T1, protein kinases (human kinome) (Homo sapiens, UniProt Q969Z0).
T1 sequence (Q969Z0 108-631): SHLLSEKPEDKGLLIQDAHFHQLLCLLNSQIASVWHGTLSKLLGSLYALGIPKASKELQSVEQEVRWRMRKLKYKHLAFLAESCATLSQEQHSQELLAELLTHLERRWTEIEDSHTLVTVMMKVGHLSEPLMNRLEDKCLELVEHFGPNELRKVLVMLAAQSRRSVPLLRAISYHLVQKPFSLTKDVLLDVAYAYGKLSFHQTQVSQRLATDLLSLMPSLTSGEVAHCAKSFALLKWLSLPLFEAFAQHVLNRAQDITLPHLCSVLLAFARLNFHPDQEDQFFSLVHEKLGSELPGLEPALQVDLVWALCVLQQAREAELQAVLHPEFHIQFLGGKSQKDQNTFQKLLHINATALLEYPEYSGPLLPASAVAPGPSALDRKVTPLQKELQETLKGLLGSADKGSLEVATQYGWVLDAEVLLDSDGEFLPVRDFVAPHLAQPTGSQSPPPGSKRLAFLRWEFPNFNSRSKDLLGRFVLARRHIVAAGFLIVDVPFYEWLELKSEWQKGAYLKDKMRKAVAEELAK
The following applies: Accession Q969Z0-1, direction down.

The target of test [3] is T2, protein kinases (human kinome) (Homo sapiens, UniProt Q4G0N4).
T2 sequence (Q4G0N4 63-442): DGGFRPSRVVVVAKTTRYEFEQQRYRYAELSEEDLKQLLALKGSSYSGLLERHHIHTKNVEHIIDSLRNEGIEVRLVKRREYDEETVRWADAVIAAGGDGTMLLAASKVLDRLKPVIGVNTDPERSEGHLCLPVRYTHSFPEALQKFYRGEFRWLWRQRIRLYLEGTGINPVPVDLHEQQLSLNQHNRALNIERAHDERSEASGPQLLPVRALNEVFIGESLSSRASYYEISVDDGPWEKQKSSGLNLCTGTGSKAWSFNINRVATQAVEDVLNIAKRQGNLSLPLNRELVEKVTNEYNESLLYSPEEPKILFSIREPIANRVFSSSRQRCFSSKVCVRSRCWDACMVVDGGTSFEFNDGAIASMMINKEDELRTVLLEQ
The following applies: Accession Q4GON4, direction down.

The target in test [4] is T3, protein kinases (human kinome) (Homo sapiens, UniProt Q53H12).
T3 sequence (Q53H12 1-422): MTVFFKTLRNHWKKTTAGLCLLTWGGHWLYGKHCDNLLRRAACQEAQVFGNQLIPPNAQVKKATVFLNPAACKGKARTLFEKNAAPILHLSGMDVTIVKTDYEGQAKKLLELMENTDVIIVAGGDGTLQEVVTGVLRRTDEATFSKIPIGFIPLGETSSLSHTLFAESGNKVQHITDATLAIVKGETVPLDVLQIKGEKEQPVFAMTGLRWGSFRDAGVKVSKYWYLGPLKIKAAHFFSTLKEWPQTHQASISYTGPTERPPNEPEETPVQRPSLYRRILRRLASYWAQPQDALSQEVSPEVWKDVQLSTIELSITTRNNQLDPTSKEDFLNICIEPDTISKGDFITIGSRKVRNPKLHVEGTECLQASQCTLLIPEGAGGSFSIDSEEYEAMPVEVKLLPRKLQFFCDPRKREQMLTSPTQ
The following applies: direction down.

Test [5] addresses protein kinases (human kinome) (Homo sapiens, UniProt P24941).

Sequence of protein kinases (human kinome) (Homo sapiens, UniProt P41240) (P41240 whole entry): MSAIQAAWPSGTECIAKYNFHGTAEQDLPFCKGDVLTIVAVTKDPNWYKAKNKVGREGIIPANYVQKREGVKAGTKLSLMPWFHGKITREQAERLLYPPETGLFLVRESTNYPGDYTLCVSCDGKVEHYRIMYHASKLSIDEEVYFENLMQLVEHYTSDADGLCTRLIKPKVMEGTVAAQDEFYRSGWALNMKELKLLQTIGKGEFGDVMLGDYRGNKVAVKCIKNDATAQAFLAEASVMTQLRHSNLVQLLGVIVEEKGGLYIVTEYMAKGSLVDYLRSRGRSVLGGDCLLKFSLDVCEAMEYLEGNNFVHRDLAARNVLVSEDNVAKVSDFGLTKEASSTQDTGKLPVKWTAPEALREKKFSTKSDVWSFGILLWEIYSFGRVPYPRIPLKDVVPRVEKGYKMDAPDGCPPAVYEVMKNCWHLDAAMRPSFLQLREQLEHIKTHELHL

Regarding `CC(C)(C)c1nc(-c2cccc(NS(=O)(=O)c3c(F)cccc3F)c2F)c(-c2ccnc(NCCOCCNC(=O)CCOCCOCCNc3cccc4c3C(=O)N(C3CCC(=O)NC3=O)C4=O)n2)s1` (centres unmarked) [DD.03.106], the “logFC of CSK” value in test [1] (Accession P41240) is recorded as −0.5149. Besides, the “logFC CSK” value in test [1] (CSK (P41240), down) is −0.5149. For the same molecule, the “logFC TBRG4” value in test [2] (experiment wp147, 4 uM) is listed as −0.7514. Besides, the “logFC NADK2” value in test [3] (experiment wp147, 4 uM) is reported as −0.6976. Also, the “logFC AGK (Q53H12)” value in test [4] (Experiment wp147, 2 uM) was −0.346; in test [4] (Experiment wp147, 4 uM), −0.9499. The “logFC CDK2 (P24941-1)” value is −0.4932 in test [5] (Experiment wp147, 2 uM); −0.5248 in test [5] (Experiment wp147, 4 uM); −0.3437 in test [5] (experiment wp137); −0.3437 in test [5] (experiment wp137, direction of change down); −0.3285 in test [5] (experiment wp147, 1 uM); −0.3285 in test [5] (experiment wp147, 1 uM, direction of change down). Besides, the “logFC CDK2 (P24941-1)” value in test [5] (experiment wp147, 2 uM, direction of change down) is given as −0.4932; in test [5] (experiment wp147, 4 uM, direction of change down) it was −0.5248.

With `O=C(COc1cccc2c1C(=O)N(C1CCC(=O)NC1=O)C2=O)NCCCCCCCC(=O)NC1(c2ccc(-c3nc4ccn5c(=O)[nH]nc5c4cc3-c3ccccc3)cc2)CCC1` (centres unmarked) [INY.01.140.1], the “logFC TBRG4” value in test [2] (experiment wp081) is given as −0.4208. In test [3] (experiment wp081), the “logFC NADK2” value is reported as −0.3886. For the same molecule, the “logFC AGK (Q53H12)” value in test [4] (Experiment wp081) is −0.4936.
